Assay results: ChEMBL document CHEMBL5357084, “Structure-Guided Discovery of Diverse Cytotoxic Dimeric Xanthones/Chromanones from Penicillium chrysogenum C-7-2-1 and Their Interconversion Properties” (J Nat Prod, 2024)
Activity calls are given as the source filed them. No cut-off for these calls is given here.

Legend:
A-375 [1] = experiment: Cytotoxicity against human A-375 cells […] at 50 uM measured after 48 hrs by MTT assay relative to control; type: functional
NCI-H1299 [2] = experiment: Cytotoxicity against human NCI-H1299 cells assessed as inhibition of cell growth at 50 uM measured after 48 hrs by MTT assay relative to control; type: functional; set-up: scale not given: the % may be the effect or the level left
BEAS-2B [3] = experiment: Cytotoxicity against human BEAS-2B cells assessed as inhibition of cell growth at 50 uM measured after 48 hrs by MTT assay relative to control; type: functional
SW-620 [4] = experiment: Cytotoxicity against human SW620 cells assessed as inhibition of cell growth at 50 uM measured after 48 hrs by MTT assay relative to control; type: functional
NCI-H23 [5] = experiment: Cytotoxicity against human NCI-H23 cells […] at 50 uM measured after 48 hrs by MTT assay relative to control; type: functional
Caco-2 [6] = experiment: Cytotoxicity against human Caco-2 cells assessed as inhibition of cell growth at 50 uM measured after 48 hrs by MTT assay relative to control; type: functional; set-up: scale not given: the % may be the effect or the level left
SW-620 [7] = experiment: Cytotoxicity against human SW620 cells assessed as inhibition of cell growth measured after 48 hrs by MTT assay; type: functional, cell-based
NCI-H1299 [8] = experiment: Cytotoxicity against human NCI-H1299 cells assessed as inhibition of cell growth measured after 48 hrs by MTT assay; type: functional, cell-based; conditions: NCI-H1299, 48 h
A-375 [9] = experiment: Cytotoxicity against human A-375 cells assessed as inhibition of cell growth measured after 48 hrs by MTT assay; type: functional, cell-based; conditions: A-375, 48 h
Caco-2 [10] = experiment: Cytotoxicity against human Caco-2 cells assessed as inhibition of cell growth measured after 48 hrs by MTT assay; type: functional, cell-based; conditions: Caco-2, 48 h
NCI-H23 [11] = experiment: Cytotoxicity against human NCI-H23 cells assessed as inhibition of cell growth measured after 48 hrs by MTT assay; type: functional, cell-based; conditions: NCI-H23, 48 h
BEAS-2B [12] = experiment: Cytotoxicity against human BEAS-2B cells assessed as inhibition of cell growth measured after 48 hrs by MTT assay; type: functional, cell-based; conditions: beas-2b
NCI-H23 [13] = experiment: Induction of cell cycle arrest in human NCI-H23 cells assessed as accumulation of cells at G1 phase at 10 uM incubated for 24 hrs by PI staining based flow cytometry analysis (reference value: 56.95+/-1.02%); type: functional
NCI-H23 [14] = experiment: Induction of apoptosis in human NCI-H23 cells assessed as apoptosis rate incubated for 24 hrs by annexin V-FITC and propidium iodide staining based flow cytometry analysis; type: functional, cell-based; conditions: dose 5-10 µM
NCI-H23 [15] = experiment: Induction of cell cycle arrest in human NCI-H23 cells assessed as accumulation of cells at G1 phase at 5 uM incubated for 24 hrs by PI staining based flow cytometry analysis (reference value: 56.95+/-1.02%); type: functional
NCI-H23 [16] = experiment: Induction of cell cycle arrest in human NCI-H23 cells assessed as accumulation of cells at SubG1 phase at 5 to 10 uM incubated for 24 hrs by PI staining based flow cytometry analysis (reference value: 0%); type: functional; conditions: dose 5-10 µM
NCI-H23 [17] = experiment: Induction of cell cycle arrest in human NCI-H23 cells assessed as accumulation of cells at S phase at 5 uM incubated for 24 hrs by PI staining based flow cytometry analysis (reference value: 15.45+/-1.79%); type: functional
NCI-H23 [18] = experiment: Induction of cell cycle arrest in human NCI-H23 cells assessed as accumulation of cells at G2/M phase at 5 uM incubated for 24 hrs by PI staining based flow cytometry analysis (reference value: 27.60+/-0.83%); type: functional
NCI-H23 [19] = experiment: Induction of cell cycle arrest in human NCI-H23 cells assessed as accumulation of cells at G2/M phase at 10 uM incubated for 24 hrs by PI staining based flow cytometry analysis (reference value: 27.60+/-0.83%); type: functional
NCI-H23 [20] = experiment: Induction of apoptosis in human NCI-H23 cells assessed as apoptosis rate at 10 uM incubated for 24 hrs by annexin V-FITC and propidium iodide staining based flow cytometry analysis (reference value: 6.88+/-2.63%); type: functional
NCI-H23 [21] = experiment: Induction of cell cycle arrest in human NCI-H23 cells assessed as accumulation of cells at S phase at 10 uM incubated for 24 hrs by PI staining based flow cytometry analysis (reference value: 15.45+/-1.79%); type: functional
NCI-H23 [22] = experiment: Induction of apoptosis in human NCI-H23 cells assessed as apoptosis rate at 5 uM incubated for 24 hrs by annexin V-FITC and propidium iodide staining based flow cytometry analysis (reference value: 6.88+/-2.63%); type: functional
[23] = Homo sapiens, SW-620, 48 h, read-out: IC50

Row | Compound | Activity (A-375 [1]) | Activity (NCI-H1299 [2]) | Cell growth relative to control (BEAS-2B [3]) | Cell growth relative to control (SW-620 [4]) | Activity (NCI-H23 [5]) | Activity (Caco-2 [6]) | IC50 (NCI-H1299 [8]) | IC50 (A-375 [9]) | IC50 (Caco-2 [10]) | IC50 (NCI-H23 [11]) | IC50 (BEAS-2B [12]) | IC50 (SW-620 [7]; [23]) | other results
1 | COC(=O)[C@@]12Oc3c(-c4ccc5c(c4O)C(=O)C[C@](C(=O)OC)([C@@H]4OC(=O)C[C@@H]4C)O5)ccc(O)c3C(=O)C1=C(O)C[C@H](C)[C@H]2O | 106% | 66.2% | 96.8% | 117% | 102.6% | 102.4% |  |  |  |  |  |  | 
2 | COC(=O)[C@@]12Oc3c(-c4ccc(O)c5c4O[C@]4(C(=O)O)C(=C(O)C[C@@H](C)[C@@H]4O)C5=O)ccc(O)c3C(=O)C1=C(O)C[C@H](C)[C@@H]2O | 84.1% | 38.2% | 155.5% | 99.9% | 6.7% | 73.2% | 30.9 µM | > 50 µM | > 50 µM | 3.9 µM | Not Active |  | IC50 (SW-620 [7]; sw-620): Not Active
3 | COC(=O)[C@]12Oc3ccc(-c4ccc5c(c4O)C(=O)C4=C(O)C[C@@H](C)[C@H](O)[C@@]4(C(=O)OC)O5)c(O)c3C(=O)C1=C(O)C[C@@H](C)[C@@H]2O [SECALONIC ACID A] | 75.6% | 73.6% | 107.3% | 80.1% | 8.7% | 54.5% | > 50 µM | > 50 µM | > 50 µM | 2.6 µM | Not Active | > 50 µM | 
4 | COC(=O)[C@]1([C@H]2OC(=O)C[C@@H]2C)CC(=O)c2c(ccc(-c3ccc4c(c3O)C(=O)C[C@@](C(=O)OC)([C@H](O)[C@@H](C)CC(=O)O)O4)c2O)O1 | 63% | 76.4% | 158.7% | 70.5% | 90.1% | 46.8% | > 50 µM | > 50 µM | 25.9 µM | > 50 µM | Not Active | > 50 µM | 
5 | COC(=O)[C@@]12Oc3cc(C)c(-c4ccc5c(c4O)C(=O)C4=C(O)C[C@H](C)[C@H](O)[C@]4(C(=O)OC)O5)c(O)c3C(=O)C1=C(O)CC[C@H]2O | 83.9% | 76.4% | 155.8% | 98.9% | 5.2% | 68.9% | > 50 µM | > 50 µM | > 50 µM | 6.9 µM | Not Active | > 50 µM | 
6 | COC(=O)[C@@]12Oc3ccc(-c4ccc(O)c5c4O[C@]4(C(=O)OC)C(=C(O)C[C@H](C)[C@@H]4O)C5=O)c(O)c3C(=O)C1=C(O)C[C@H](C)[C@H]2O | 75% | 64.9% | 151.6% | 98.6% | 7.2% | 70.2% | > 50 µM | > 50 µM | > 50 µM | 6.4 µM | Not Active |  | IC50 (SW-620 [7]; sw-620): Not Active; Activity (NCI-H23 [13]): 38.68%; Activity (NCI-H23 [14]): Dose-Dependent Effect; Activity (NCI-H23 [15]): 46.56%; Activity (NCI-H23 [16]): 0%; Activity (NCI-H23 [17]): 15%; Activity (NCI-H23 [18]): 38.43%; Activity (NCI-H23 [19]): 52.48%; Activity (NCI-H23 [20]): 60.11%; Activity (NCI-H23 [21]): 8.85%; Activity (NCI-H23 [22]): 45.71%
7 | COC(=O)[C@@]12Oc3ccc(-c4ccc(O)c5c4O[C@@](C(=O)OC)([C@H]4OC(=O)C[C@@H]4C)CC5=O)c(O)c3C(=O)C1=C(O)C[C@H](C)[C@H]2O | 76.8% | 65.9% |  | 94.9% | 56% | 82.4% |  |  |  |  |  |  | Activity (BEAS-2B [3]): inactive
8 | COC(=O)[C@@]12Oc3c(-c4ccc5c(c4O)C(=O)C[C@](C(=O)OC)([C@H]4OC(=O)C[C@@H]4C)O5)ccc(O)c3C(=O)C1=C(O)C[C@H](C)[C@H]2O | 86.1% | 64.2% | 179.2% | 111% | 82.8% | 99.2% |  |  |  |  |  |  | 
